Measured values published in ChEMBL document CHEMBL1201862, “PubChem BioAssay data set” (2004).
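These data come from cells grown in 96-well plates and exposed to compound for 48 hours at five concentrations. GI50 = concentration required for 50% inhibition of growth.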 The source made the active and inactive calls. Rule as the data show it: active = GI50 up to about 1.1 µM and inactive = higher.

How the values were obtained:
Test in all cases: growth of human tumour cells (NCI), 48 h
786-0 = test system: 786-0
A498 = test system: A498
A549 = test system: A549
ACHN = test system: ACHN
BT-549 = test system: BT-549
CAKI-1 = test system: CAKI-1
CCRF-CEM = test system: CCRF-CEM
COLO 205 = test system: COLO 205
DU-145 = test system: DU-145
EKVX = test system: EKVX
HCT-116 = test system: HCT-116
HCT-15 = test system: HCT-15
HL-60 = test system: HL-60
HOP-62 = test system: HOP-62
HT-29 = test system: HT-29
Hs-578T = test system: Hs-578T
IGROV-1 = test system: IGROV-1
K562 = test system: K562
KM12 = test system: KM12
LOX IMVI = test system: LOX IMVI
M14 = test system: M14
MCF7 = test system: MCF7
MDA-MB-231 = test system: MDA-MB-231
MDA-MB-435 = test system: MDA-MB-435
MDA-N = test system: MDA-N
MOLT-4 = test system: MOLT-4
Malme-3M = test system: Malme-3M
NCI-H226 = test system: NCI-H226
NCI-H23 = test system: NCI-H23
NCI-H522 = test system: NCI-H522
NCI/ADR-RES = test system: NCI/ADR-RES
OVCAR-3 = test system: OVCAR-3
OVCAR-4 = test system: OVCAR-4
OVCAR-5 = test system: OVCAR-5
OVCAR-8 = test system: OVCAR-8
PC-3 = test system: PC-3
RPMI-8226 = test system: RPMI-8226
RXF 393 = test system: RXF 393
SF-295 = test system: SF-295
SK-MEL-28 = test system: SK-MEL-28
SK-MEL-2 = test system: SK-MEL-2
SK-MEL-5 = test system: SK-MEL-5
SK-OV-3 = test system: SK-OV-3
SN12C = test system: SN12C
SNB-19 = test system: SNB-19
SNB-75 = test system: SNB-75
SR = test system: SR
SW-620 = test system: SW-620
T47D = test system: T47D
TK-10 = test system: TK-10
U-251 = test system: U-251
UACC-257 = test system: UACC-257
UACC-62 = test system: UACC-62
UO-31 = test system: UO-31
HCC 2998 = test system: HCC 2998
HOP-92 = test system: HOP-92
NCI-H460 = test system: NCI-H460
SF-268 = test system: SF-268
SF-539 = test system: SF-539

Measured: GI50

CCCCNN
inactive: 786-0 > 100 µM | A498 > 100 µM | A549 > 100 µM | ACHN > 100 µM | BT-549 > 100 µM | CAKI-1 > 100 µM | CCRF-CEM 43 µM | COLO 205 > 100 µM | DU-145 > 100 µM | EKVX > 100 µM | HCT-116 > 100 µM | HL-60 > 100 µM | HOP-62 > 100 µM | HT-29 > 100 µM | Hs-578T > 100 µM | IGROV-1 > 100 µM | K562 > 100 µM | KM12 > 100 µM | LOX IMVI > 100 µM | M14 > 100 µM | MCF7 > 100 µM | MDA-MB-231 > 100 µM | MDA-MB-435 > 100 µM | MDA-N > 100 µM | MOLT-4 > 100 µM | Malme-3M > 100 µM | NCI-H226 > 100 µM | NCI-H23 > 100 µM | NCI-H522 65.3 µM | NCI/ADR-RES > 100 µM | OVCAR-3 > 100 µM | OVCAR-4 > 100 µM | OVCAR-5 > 100 µM | OVCAR-8 > 100 µM | PC-3 > 100 µM | RPMI-8226 > 100 µM | RXF 393 > 100 µM | SF-295 > 100 µM | SK-MEL-28 > 100 µM | SK-MEL-2 > 100 µM | SK-MEL-5 95.7 µM | SK-OV-3 > 100 µM | SN12C > 100 µM | SNB-19 > 100 µM | SNB-75 > 100 µM | SR > 100 µM | SW-620 > 100 µM | T47D > 100 µM | TK-10 > 100 µM | U-251 > 100 µM | UACC-257 > 100 µM | UACC-62 > 100 µM | UO-31 > 100 µM
> 100 µM: HCT-15

CN(C)CCCc1cccc2[nH]c3c(c12)CN(C)CC3
inactive: 786-0 92.3 µM | A549 > 100 µM | ACHN > 100 µM | BT-549 81.7 µM | CAKI-1 > 100 µM | CCRF-CEM 63.2 µM | COLO 205 63.4 µM | DU-145 > 100 µM | EKVX > 100 µM | HCC 2998 > 100 µM | HCT-116 > 100 µM | HL-60 56.9 µM | HOP-62 56.5 µM | HOP-92 > 100 µM | HT-29 40.1 µM | Hs-578T > 100 µM | IGROV-1 73.1 µM | K562 76.7 µM | KM12 > 100 µM | LOX IMVI 30.1 µM | M14 17.3 µM | MCF7 > 100 µM | MDA-MB-231 17.8 µM | MDA-MB-435 > 100 µM | MDA-N > 100 µM | MOLT-4 75 µM | Malme-3M 95.9 µM | NCI-H226 > 100 µM | NCI-H23 > 100 µM | NCI-H460 > 100 µM | NCI-H522 > 100 µM | NCI/ADR-RES > 100 µM | OVCAR-3 > 100 µM | OVCAR-4 > 100 µM | OVCAR-5 > 100 µM | OVCAR-8 > 100 µM | PC-3 67.1 µM | RPMI-8226 > 100 µM | RXF 393 19.7 µM | SF-268 > 100 µM | SF-295 > 100 µM | SF-539 28.8 µM | SK-MEL-28 > 100 µM | SK-MEL-2 > 100 µM | SK-MEL-5 > 100 µM | SK-OV-3 > 100 µM | SN12C > 100 µM | SNB-19 > 100 µM | SNB-75 78 µM | SR 27.4 µM | SW-620 > 100 µM | T47D > 100 µM | TK-10 > 100 µM | U-251 > 100 µM | UACC-257 80 µM | UACC-62 > 100 µM | UO-31 > 100 µM
80 µM: HCT-15

COc1ccc(Cn2c3c(cc(OC(C)=O)c2=O)Cc2ccccc2-3)cc1
2.55 µM: HCT-15
inactive: 786-0 5.33 µM | A549 13.9 µM | ACHN 7.91 µM | BT-549 11.2 µM | CAKI-1 10.7 µM | CCRF-CEM 2 µM | COLO 205 20.6 µM | DU-145 12.2 µM | EKVX 7.76 µM | HCC 2998 3.33 µM | HCT-116 6.52 µM | HL-60 5.64 µM | HOP-62 14.9 µM | HOP-92 9.98 µM | HT-29 10.7 µM | Hs-578T 20 µM | IGROV-1 7.82 µM | K562 11.6 µM | KM12 11.4 µM | LOX IMVI 6.12 µM | M14 6.24 µM | MCF7 13.7 µM | MDA-MB-231 13.2 µM | MDA-MB-435 11 µM | MDA-N 12.1 µM | MOLT-4 2.88 µM | Malme-3M 10.9 µM | NCI-H226 14.3 µM | NCI-H23 10.5 µM | NCI-H460 3.97 µM | NCI-H522 7.01 µM | NCI/ADR-RES 1.81 µM | OVCAR-3 10.7 µM | OVCAR-4 9.95 µM | OVCAR-5 18.7 µM | OVCAR-8 7.64 µM | PC-3 8.41 µM | RXF 393 8.36 µM | SF-268 7.82 µM | SF-295 17 µM | SF-539 8.02 µM | SK-MEL-28 22.1 µM | SK-MEL-2 4.61 µM | SK-MEL-5 12.2 µM | SK-OV-3 20 µM | SN12C 7.55 µM | SNB-19 12.9 µM | SNB-75 11.7 µM | SR 2.14 µM | SW-620 6.64 µM | T47D 14.6 µM | TK-10 13.1 µM | U-251 8.65 µM | UACC-257 2.28 µM | UACC-62 9.1 µM | UO-31 5.56 µM

O=C(CCNC(=O)OCc1ccccc1)OCCCNC(=O)OCc1ccccc1
> 100 µM: HCT-15
inactive: 786-0 > 100 µM | A549 > 100 µM | ACHN > 100 µM | BT-549 > 100 µM | CCRF-CEM > 100 µM | COLO 205 > 100 µM | DU-145 > 100 µM | HCC 2998 > 100 µM | HCT-116 > 100 µM | HL-60 > 100 µM | HOP-62 > 100 µM | HOP-92 > 100 µM | HT-29 > 100 µM | Hs-578T > 100 µM | IGROV-1 > 100 µM | K562 > 100 µM | KM12 > 100 µM | LOX IMVI > 100 µM | M14 > 100 µM | MCF7 > 100 µM | MDA-MB-231 > 100 µM | MDA-MB-435 > 100 µM | MDA-N > 100 µM | MOLT-4 > 100 µM | Malme-3M > 100 µM | NCI-H226 > 100 µM | NCI-H23 > 100 µM | NCI-H460 > 100 µM | NCI-H522 > 100 µM | NCI/ADR-RES > 100 µM | OVCAR-3 > 100 µM | OVCAR-4 > 100 µM | OVCAR-5 > 100 µM | OVCAR-8 > 100 µM | PC-3 > 100 µM | RPMI-8226 > 100 µM | RXF 393 > 100 µM | SF-268 > 100 µM | SF-295 > 100 µM | SF-539 > 100 µM | SK-MEL-28 > 100 µM | SK-MEL-5 > 100 µM | SK-OV-3 > 100 µM | SN12C > 100 µM | SNB-19 > 100 µM | SNB-75 50.8 µM | SR > 100 µM | SW-620 > 100 µM | T47D > 100 µM | TK-10 > 100 µM | U-251 > 100 µM | UACC-257 > 100 µM | UACC-62 > 100 µM | UO-31 > 100 µM

COc1cc(C(=O)N(C(=S)OCc2ccccn2)c2ccccc2)cc(OC)c1OC
inactive: 786-0 77.8 µM | A498 53.5 µM | ACHN 42.3 µM | BT-549 41 µM | CAKI-1 44.7 µM | CCRF-CEM 17.8 µM | COLO 205 53.5 µM | DU-145 33.8 µM | EKVX 12.9 µM | HCT-116 44.1 µM | HL-60 27 µM | HT-29 29.9 µM | Hs-578T 53.7 µM | IGROV-1 16.3 µM | K562 41.1 µM | KM12 > 100 µM | LOX IMVI 35 µM | M14 > 100 µM | MCF7 33.7 µM | MDA-MB-231 78.5 µM | MDA-MB-435 > 100 µM | MDA-N 96.4 µM | MOLT-4 25.6 µM | Malme-3M 8.22 µM | NCI-H226 26.1 µM | NCI-H23 86.1 µM | NCI-H460 35.6 µM | NCI/ADR-RES 39.4 µM | OVCAR-3 > 100 µM | OVCAR-5 49.2 µM | OVCAR-8 62.2 µM | PC-3 74.3 µM | RPMI-8226 26.8 µM | RXF 393 42.2 µM | SF-268 > 100 µM | SF-539 26.5 µM | SK-MEL-28 92.3 µM | SK-MEL-2 > 100 µM | SK-MEL-5 35.2 µM | SK-OV-3 > 100 µM | SN12C 43 µM | SNB-19 > 100 µM | SR 8.47 µM | SW-620 59.7 µM | T47D 34.9 µM | TK-10 70.8 µM | U-251 > 100 µM | UACC-257 > 100 µM | UACC-62 56.4 µM | UO-31 25.4 µM
39.6 µM: HCT-15
